In patent US20200147116A1, “Use of Paeoniflorin-6'-O-benzenesulfonate in treatment of Sjögren's syndrome” (NINGBO ZHIMING BIOTECHNOLOGY CO., LTD., priority 2017, published 2020):

Experiments:
Type in all cases: in vivo
[1] = test system: spleen B lymphocyte; experiment: Spleen B lymphocyte proliferation in SS model mice (FIG. 3)
Source text: FIG. 3 Effects of CP-25 on spleen B lymphocyte proliferation in SS model mice.

[2] = test system: spleen CD11c+ MHC-II+ DC; experiment: Spleen CD11c+ MHC-II+ DC in SS model mice (FIG. 9)
Source text: FIG. 9 Effects of CP-25 on spleen CD11c^+ MHC-II^+ DC in SS model mice.

[3] = test system: spleen T lymphocytes; experiment: Spleen T lymphocyte proliferation in NOD model mice (FIG. 12A)
Source text: (§1) FIG. 12 Effects of CP-25 on spleen T and B lymphocyte proliferation in NOD model mice.
(§2) A: T lymphocytes; B: B lymphocytes

[4] = test system: Sjögren's syndrome model mice (C57BL/6 female mice); experiment: Saliva amount in induced Sjögren's syndrome model mice (wet weight method after pilocarpine); conditions: for Saliva amount in SS mice, One week after administration / Saliva amount in SS mice, Two weeks after administration / Saliva amount in SS mice, Pre-administration: Example 1, C57BL/6 SS mice; for Saliva amount in SS mice, Pre-administration / Saliva amount, Pre-administration: baseline before administration; for Saliva amount, One week after: one week of administration; for Saliva amount, Two weeks after: two weeks of administration
Procedure: […] Water intake, saliva amount and submaxillary gland pathological analysis and score were determined respectively, on the day before administration, the 7th day and 14th day after administration. The therapeutic effects of CP-25 on Sjögren's syndrome were evaluated by comparison of changes of each index before and after treatment. 2 Sjögren's syndrome model mice: C57BL/6 female mice housed in a SPF environment with successful modeling (The animal model was made via repeated multi-point intracutaneous injection of submaxillary gland homogenate of homologous mice to tail and back of mice). The animal model was made via repeated multi-point intracutaneously injection of submaxillary gland homogenate of homologous mice to tail and back of mice, and the mice with successful modeling were randomly assigned to each group according to comprehensive conditions of mice. At the same time, the average weight and status of each group of mice should be as close as possible. […] […] High dose of said pharmaceutical should be incubated for half an hour before use. Before measurement, mice were anesthetized via intraperitoneal injection of 0.05 ml of 2.4% pentobarbital sodium, and the satisfactory anesthesia was smooth breathing, corneal reflex disappearance and limb muscle relaxation. After complete anesthesia, a mouse was placed in slightly tilted trendelenburg position, and its body was kept warm using the heater. The mouse was injected intraperitoneally with 0.1 ml of 0.025 mg/ml Pilocarpine, and 5 min later, a weighed cotton ball was placed in the mouth of the mouse for 10 min. After taking the ball out, the saliva weight of mice was measured by the wet weight method.

[5] = test system: Sjögren's syndrome model mice; experiment: Water intake in Sjögren's syndrome model mice; conditions: therapeutic mice, after a week of administration; model control always tends to rise
Procedure: In this invention, low dose (17.5 mg/kg), medium dose (35 mg/kg) and high dose (70 mg/kg) of CP-25 were respectively administrated by gavage to each of randomly assigned group of Sjögren's syndrome model mice for two weeks. Water intake, saliva amount and submaxillary gland pathological analysis and score were determined respectively, on the day before administration, the 7th day and 14th day after administration. The therapeutic effects of CP-25 on Sjögren's syndrome were evaluated by comparison of changes of each index before and after treatment.
However, the water intake in mice of model control group always tends to rise.

[6] = test system: spleen B lymphocytes; experiment: Spleen B lymphocyte proliferation in NOD model mice (FIG. 12B)
Source text: as §1, §2

[7] = SS model mice, 17.5 mg/kg by gavage
[8] = SS model mice, 35 mg/kg by gavage

SMILES: C[C@@]12C[C@@]3(O)O[C@H](O1)C1(COC(=O)c4ccccc4)[C@@H]3CC12OC1OC(COS(=O)(=O)c2ccccc2)C(O)C(O)C1O (stereo partly drawn) [CP-25, Paeoniflorin-6′-O-benzenesulfonate]
- Spleen B lymphocyte proliferation [1]: significantly inhibit
- Expression of surface molecular MHC-II+ on spleen CD11c+ DC [2]: significantly inhibit
- Spleen T lymphocyte proliferation [3]: significantly inhibit
- Saliva amount in SS mice, One week after administration ([4]; 17.5 mg/kg): 17.83 ± 2.14 mg/each mouse/10 min
- Saliva amount in SS mice, Two weeks after administration ([4]; 17.5 mg/kg): 17.67 ± 2.07^ mg/each mouse/10 min
- Saliva amount in SS mice, One week after administration ([4]; 35 mg/kg): 18.33 ± 1.97 mg/each mouse/10 min
- Saliva amount in SS mice, Two weeks after administration ([4]; 35 mg/kg): 23.17 ± 2.64 mg/each mouse/10 min
- Saliva amount in SS mice, One week after administration ([4]; 70 mg/kg): 25.67 ± 1.63 mg/each mouse/10 min
- Saliva amount in SS mice, Two weeks after administration ([4]; 70 mg/kg): 26.83 ± 1.47 mg/each mouse/10 min
- Saliva amount in SS mice, Pre-administration ([4]; dose group 17.5 mg/kg): 22.67 ± 3.27 mg/each mouse/10 min
- Saliva amount in SS mice, Pre-administration ([4]; dose group 35 mg/kg): 23.01 ± 2.37 mg/each mouse/10 min
- Saliva amount in SS mice, Pre-administration ([4]; dose group 70 mg/kg): 22.75 ± 3.67 mg/each mouse/10 min
- Saliva amount, One week after [4, 7]: 17.83 ± 2.14 mg/10 min
- Saliva amount, Two weeks after [4, 7]: 17.67 ± 2.07^ mg/10 min
- Saliva amount, One week after [4, 8]: 18.33 ± 1.97 mg/10 min
- Saliva amount, Two weeks after [4, 8]: 23.17 ± 2.64 mg/10 min
- Saliva amount, One week after ([4]; SS model mice, 70 mg/kg): 25.67 ± 1.63 mg/10 min
- Saliva amount, Two weeks after ([4]; SS model mice, 70 mg/kg): 26.83 ± 1.47 mg/10 min
- Saliva amount, Pre-administration ([4]; SS model mice, dose group 17.5 mg/kg by gavage): 22.67 ± 3.27 mg/10 min
- Saliva amount, Pre-administration ([4]; SS model mice, dose group 35 mg/kg by gavage): 23.01 ± 2.37 mg/10 min
- Saliva amount, Pre-administration ([4]; SS model mice, dose group 70 mg/kg): 22.75 ± 3.67 mg/10 min
- Curative effect judged on saliva amount after one week of medication ([4]; SS model mice, high dose of CP-25, TGP, Pae, HCQ at the doses of Table 3): had curative effects
- Efficacy judged on saliva amount with medication extended to two weeks ([4]; SS model mice, two weeks of medication): more significant efficacy
- Saliva amount (in words) ([4]; Sjögren's syndrome mice, Example 1): significantly increase
- Onset time of curative effects versus comparators ([4]; Sjögren's syndrome mice, Example 1, saliva amount): earlier than that of TGP, Pae or HCQ
- Water intake [5]: begins to drop off
- Spleen B lymphocyte proliferation [6]: significantly inhibit
